Assay results: patent publication US5834494A, “Pyridylcarbamoyl Indolines” (SmithKline Beecham p.l.c., priority 1993, dated 1998)

Test: Geller Seifter Procedure
Type: in vivo
Conditions: dose range 0.5-10 mg/kg p.o.; procedure of WO 94/04533
Procedure: The compound of example 2 was tested following the procedure outlined in WO 94/04533.

Cc1cc2c(cc1Cl)N(C(=O)Nc1cccnc1)CC2 [Example 2, 6-Chloro-5-methyl-1-(3-pyridycarbamoyl)indoline]
punished responding: significant increase in punished responding
